# Test results published in patent publication US9029337B2, “Modulation of factor 7 expression” (Isis Pharmaceuticals, Inc., priority 2007, dated 2015).
# Strand notation (5' to 3'): a small letter for the sugar, then the base; units joined by * are phosphorothioate-linked, units joined directly phosphodiester-linked; [ ] holds rarer units or linkages, { } end groups; capitals alone tell only the bases. e = 2'-O-(2-methoxyethyl) (MOE); [5mC] = 5-methylcytosine; d = 2'-deoxy (DNA)
# Experiments:
# [1] = system: human Factor 7 mRNA; test: Dose-dependent antisense inhibition of human Factor 7 in HepB3 cells, lipofectin; format: cell-based; details: for percent inhibition of Factor 7 mRNA, relative to untreated control cells: HepB3 cells, approx. 16 hours (Table 14); for percent inhibition of Factor 7: approximately 16 hours
# Summary of the method: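 HepB3 cells (4,000/well) lipofectin-transfected with antisense oligonucleotide at 3.125 or 6.25 up to 100 nM for ~16 h. Factor 7 mRNA measured by real-time RT-PCR with primer probe set RTS 2927, adjusted to RIBOGREEN total RNA; expressed as percent inhibition versus untreated control cells.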
# [2] = system: human Factor 7 mRNA; test: Dose-dependent antisense inhibition of human Factor 7 in HepB3 cells, electroporation; format: cell-based
# Summary of the method: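 HepB3 cells, 20,000/well, electroporated with gapmers at 3.125–100 μM; about 16 h treatment. Factor 7 mRNA by qRT-PCR with primer probe set RTS 2927, normalized to RIBOGREEN total RNA; percent inhibition versus untreated cells.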
# [3] = 3.125 μM, approx. 16 hours (Table 15, Example 7)
# [4] = 3.125 μM, approx. 16 hours (Table 16, Example 8 confirmation)
# [5] = 6.25 μM, approx. 16 hours (Table 15, Example 7)
# [6] = 6.25 μM, approx. 16 hours (Table 16, Example 8 confirmation)
# [7] = 12.5 μM, approx. 16 hours (Table 15, Example 7)
# [8] = 12.5 μM, approx. 16 hours (Table 16, Example 8 confirmation)
# [9] = 25 μM, approx. 16 hours (Table 15, Example 7)
# [10] = 25 μM, approx. 16 hours (Table 16, Example 8 confirmation)
# [11] = 50 μM, approx. 16 hours (Table 15, Example 7)
# [12] = 50 μM, approx. 16 hours (Table 16, Example 8 confirmation)
# [13] = 100 μM, approx. 16 hours (Table 15, Example 7)
# [14] = 100 μM, approx. 16 hours (Table 16, Example 8 confirmation)
Substance,"percent inhibition of Factor 7 mRNA, relative to untreated control cells ([1]; 3.125 nM) [%]","percent inhibition of Factor 7 mRNA, relative to untreated control cells ([1]; 12.5 nM) [%]","percent inhibition of Factor 7 mRNA, relative to untreated control cells ([1]; 25 nM) [%]","percent inhibition of Factor 7 mRNA, relative to untreated control cells ([1]; 50 nM) [%]","percent inhibition of Factor 7 mRNA, relative to untreated control cells ([1]; 100 nM) [%]","percent inhibition of Factor 7 mRNA, relative to untreated control cells [1] [%]","percent inhibition of Factor 7 ([1]; Table 3, 3.125 nM) [%]","percent inhibition of Factor 7 ([1]; Table 3, 6.25 nM) [%]","percent inhibition of Factor 7 ([1]; Table 3, 12.5 nM) [%]","percent inhibition of Factor 7 ([1]; Table 3, 25.0 nM) [%]","percent inhibition of Factor 7 ([1]; Table 3, 50.0 nM) [%]","percent inhibition of Factor 7 ([1]; Table 3, 100.0 nM) [%]","percent inhibition of Factor 7 ([1]; Table 7, 6.25 nM) [%]","percent inhibition of Factor 7 ([1]; Table 7, 12.5 nM) [%]","percent inhibition of Factor 7 ([1]; Table 7, 25.0 nM) [%]","percent inhibition of Factor 7 ([1]; Table 7, 50.0 nM) [%]","percent inhibition of Factor 7 ([1]; Table 7, 100.0 nM) [%]","percent inhibition of Factor 7 mRNA, relative to untreated control cells [2, 3] [%]","percent inhibition of Factor 7 mRNA, relative to untreated control cells [2, 4] [%]","percent inhibition of Factor 7 mRNA, relative to untreated control cells [2, 5] [%]",other results
407935 (antisense eA*eT*eG*e[5mC]*eA*dT*dG*dG*dT*dG*dA*dT*dG*d[5mC]*dT*eT*e[5mC]*eT*eG*eA) [compound 407935],19,58,70,85,87,39,57,76,78,89,90,89,38,53,70,82,86,37,63,47,"percent inhibition of Factor 7 mRNA, relative to untreated control cells [2, 6]: 79%; percent inhibition of Factor 7 mRNA, relative to untreated control cells [2, 7]: 67%; percent inhibition of Factor 7 mRNA, relative to untreated control cells [2, 8]: 84%; percent inhibition of Factor 7 mRNA, relative to untreated control cells [2, 9]: 73%; percent inhibition of Factor 7 mRNA, relative to untreated control cells [2, 10]: 90%; percent inhibition of Factor 7 mRNA, relative to untreated control cells [2, 11]: 80%; percent inhibition of Factor 7 mRNA, relative to untreated control cells [2, 12]: 90%; percent inhibition of Factor 7 mRNA, relative to untreated control cells [2, 13]: 87%; percent inhibition of Factor 7 mRNA, relative to untreated control cells [2, 14]: 91%"
407939 (antisense eT*eG*e[5mC]*eA*eG*d[5mC]*d[5mC]*d[5mC]*dG*dG*d[5mC]*dA*d[5mC]*d[5mC]*d[5mC]*eA*eG*e[5mC]*eG*eA) [compound 407939],17,57,75,80,83,35,62,79,83,91,92,92,37,57,77,84,87,18,35,28,"percent inhibition of Factor 7 mRNA, relative to untreated control cells [2, 6]: 60%; percent inhibition of Factor 7 mRNA, relative to untreated control cells [2, 7]: 42%; percent inhibition of Factor 7 mRNA, relative to untreated control cells [2, 8]: 60%; percent inhibition of Factor 7 mRNA, relative to untreated control cells [2, 9]: 56%; percent inhibition of Factor 7 mRNA, relative to untreated control cells [2, 10]: 73%; percent inhibition of Factor 7 mRNA, relative to untreated control cells [2, 11]: 68%; percent inhibition of Factor 7 mRNA, relative to untreated control cells [2, 12]: 81%; percent inhibition of Factor 7 mRNA, relative to untreated control cells [2, 13]: 82%; percent inhibition of Factor 7 mRNA, relative to untreated control cells [2, 14]: 83%"
